Reference: patent US11419335B2, “N-arylated analogues and uses thereof” (University of Florida Research Foundation, Incorporated, priority 2016, dated 2022)
Converted amounts (≈) assume the structure as drawn. Marks after values point to notes of the source that are not given here.

Columns and labels:
Type in all cases: cell-based
[1] = tested on: methicillin-resistant Staphylococcus aureus MRSA-2 (clinical isolate); assay: MIC broth microdilution, MRSA-2
Experimental: (§1) The minimum inhibitory concentration (MIC) for each tested compound was determined by the broth microdilution method as recommended by the Clinical and Laboratory Standards Institute (CLSI). In a 96-well plate, eleven two-fold serial dilutions of each compound were made in a final volume of 100 μL Luria Broth. Each well was inoculated with ˜10^5 bacterial cells at the initial time of incubation, prepared from a fresh log phase culture (OD600 of 0.5 to 1.0 depending on bacterial strain). The MIC was defined as the lowest concentration of compound that prevented bacterial growth after incubating 16 to 18 hours at 37° C. (MIC values were supported by spectrophotometric readings at OD600). DMSO served as our vehicle and negative control in each microdilution MIC assay. DMSO was serially diluted with a top concentration of 1% v/v.
as §1, with “for each compound was” for “for each tested compound was”, “Standards Institute (CLSI).^6 In a” for “Standards Institute (CLSI). In a”, “concentration of test compound that” for “concentration of compound that”, “37° C. The concentration range tested for each compound during this study was 0.10 to 100 μM. DMSO served” for “37° C. (MIC values were supported by spectrophotometric readings at OD600). DMSO served”, “1% v/v. All MIC values were obtained from a minimum of three independent experiments.” for “1% v/v.”

[2] = tested on: methicillin-resistant Staphylococcus epidermidis (MRSE strain ATCC 35984); assay: MIC broth microdilution, MRSE 35984; details: for MIC S. epidermidis MRSE 35984: Table 1A
Experimental: as §1
as §1, with “for each compound was” for “for each tested compound was”, “Standards Institute (CLSI).^6 In a” for “Standards Institute (CLSI). In a”, “concentration of test compound that” for “concentration of compound that”, “37° C. The concentration range tested for each compound during this study was 0.10 to 100 μM. DMSO served” for “37° C. (MIC values were supported by spectrophotometric readings at OD600). DMSO served”, “1% v/v. All MIC values were obtained from a minimum of three independent experiments.” for “1% v/v.”

[3] = tested on: Pseudomonas aeruginosa (PAO1); assay: MIC broth microdilution, PAO1
Experimental: as §1
as §1, with “for each compound was” for “for each tested compound was”, “Standards Institute (CLSI).^6 In a” for “Standards Institute (CLSI). In a”, “concentration of test compound that” for “concentration of compound that”, “37° C. The concentration range tested for each compound during this study was 0.10 to 100 μM. DMSO served” for “37° C. (MIC values were supported by spectrophotometric readings at OD600). DMSO served”, “1% v/v. All MIC values were obtained from a minimum of three independent experiments.” for “1% v/v.”

[4] = tested on: Acinetobacter baumannii (ATCC 1794); assay: MIC broth microdilution, A. baumannii 1794; details: for MIC A. baumannii 1794: Table 1A, in µM
Experimental: as §1
as §1, with “for each compound was” for “for each tested compound was”, “Standards Institute (CLSI).^6 In a” for “Standards Institute (CLSI). In a”, “concentration of test compound that” for “concentration of compound that”, “37° C. The concentration range tested for each compound during this study was 0.10 to 100 μM. DMSO served” for “37° C. (MIC values were supported by spectrophotometric readings at OD600). DMSO served”, “1% v/v. All MIC values were obtained from a minimum of three independent experiments.” for “1% v/v.”

[5] = tested on: vancomycin-resistant Enterococcus faecium (VRE strain ATCC 700221); assay: MIC broth microdilution, VRE 700221; details: for MIC E. faecium VRE 700221: Table 1A
Experimental: as §1
as §1, with “for each compound was” for “for each tested compound was”, “Standards Institute (CLSI).^6 In a” for “Standards Institute (CLSI). In a”, “concentration of test compound that” for “concentration of compound that”, “37° C. The concentration range tested for each compound during this study was 0.10 to 100 μM. DMSO served” for “37° C. (MIC values were supported by spectrophotometric readings at OD600). DMSO served”, “1% v/v. All MIC values were obtained from a minimum of three independent experiments.” for “1% v/v.”

CCCCCCCCCCCCCCCCn1cc[n+](Cc2ccc(Br)cc2)c1C.[Br-] [Compound 14]
MIC MRSA-2 ([1]; Table 1A): 6.25 µM | MIC MRSA-2 ([1]; Table 4): 6.25 µM | MIC S. epidermidis MRSE 35984 [2]: 6.25 µM | MIC MRSE 35984 ([2]; Table 4): 6.25 µM | MIC PAO1 ([3]; Table 1A): > 100 µM | MIC PAO1 ([3]; Table 4): >100 µM | MIC A. baumannii 1794 [4]: >100* | MIC A. bau. 1794 ([4]; Table 4): >100 µM | MIC E. faecium VRE 700221 [5]: 4.69^a | MIC VRE 700221 ([5]; Table 4): 4.69a micromolar

CCCCCCCCCCCCCCCCn1cc[n+](Cc2cc(C(F)(F)F)cc(C(F)(F)F)c2)c1C.[Br-] [Compound 19]
MIC MRSA-2 ([1]; Table 1A): 12.5 µM | MIC MRSA-2 ([1]; Table 4): 12.5 µM | MIC MRSE 35984 ([2]; Table 4): 12.5 µM | MIC PAO1 ([3]; Table 1A): > 100 µM | MIC PAO1 ([3]; Table 4): >100 µM | MIC A. baumannii 1794 [4]: >100 | MIC A. bau. 1794 ([4]; Table 4): >100 µM | MIC E. faecium VRE 700221 [5]: 9.38^a | MIC VRE 700221 ([5]; Table 4): 9.38a micromolar

CCCCCCCCCCCCCCCCn1cc[n+](Cc2cc(Br)cc(Br)c2)c1C.[Br-] [Compound 20]
MIC MRSA-2 ([1]; Table 1A): 37.5 µM | MIC MRSA-2 ([1]; Table 4): 37.5 µM | MIC S. epidermidis MRSE 35984 [2]: 12.5 µM | MIC MRSE 35984 ([2]; Table 4): 12.5 µM | MIC PAO1 ([3]; Table 1A): > 100 µM | MIC PAO1 ([3]; Table 4): >100 µM | MIC A. baumannii 1794 [4]: >100 | MIC A. bau. 1794 ([4]; Table 4): >100 µM | MIC E. faecium VRE 700221 [5]: 6.25 µM | MIC VRE 700221 ([5]; Table 4): 6.25 µM

Cc1nccn1Cc1ccccc1 [Compound 22]
MIC ([1]; Staphylococcus aureus, MRSA, Table 4, read-out: MIC MRSA-2): > 100 µM | MIC MRSA-2 ([1]; Table 1A): > 100 µM | MIC ([2]; Staphylococcus epidermidis, Table 4, read-out: MIC MRSE 35984): > 100 µM | MIC S. epidermidis MRSE 35984 [2]: > 100 µM | MIC ([3]; Pseudomonas aeruginosa, PAO1, Table 4): > 100 µM | MIC PAO1 ([3]; Table 1A): > 100 µM | MIC ([4]; Acinetobacter baumannii, ATCC1794, Table 4, read-out: MIC A. bau. 1794): > 100 µM | MIC A. baumannii 1794 [4]: >100 | MIC E. faecium VRE 700221 [5]: > 100 µM | MIC ([5]; Table 4, read-out: MIC VRE 700221): > 100 µM

CCCCCCCCCCCCCCCCn1ccnc1C [Compound 23, 1-hexadecyl-2-methyl-1H-imidazole]
MIC MRSA-2 ([1]; Table 1A): 6.25 µM (≈ 1.92 µg/mL) | MIC S. epidermidis MRSE 35984 [2]: 3.13 µM (≈ 0.959 µg/mL) | MIC PAO1 ([3]; Table 1A): > 100 µM | MIC A. baumannii 1794 [4]: >100 | MIC E. faecium VRE 700221 [5]: 2.35^a

CCCCCCCCCCCCCCCCn1c(C)[n+](Cc2cccc(OC)c2)c2ccccc21.[Br-] [Compound 26]
MIC MRSA-2 ([1]; Table 1A): 3.13 µM | MIC MRSA-2 ([1]; Table 4): 3.13 µM | MIC S. epidermidis MRSE 35984 [2]: 6.25 µM | MIC MRSE 35984 ([2]; Table 4): 6.25 µM | MIC PAO1 ([3]; Table 1A): > 100 µM | MIC PAO1 ([3]; Table 4): >100 µM | MIC A. baumannii 1794 [4]: >100 | MIC A. bau. 1794 ([4]; Table 4): >100 µM | MIC E. faecium VRE 700221 [5]: 1.56 µM | MIC VRE 700221 ([5]; Table 4): 1.56 µM

CCCCCCCCCCCCCCCCn1c(C)[n+](Cc2cccc(F)c2)c2ccccc21.[Br-] [Compound 27]
MIC MRSA-2 ([1]; Table 1A): 6.25 µM | MIC MRSA-2 ([1]; Table 4): 6.25 µM | MIC S. epidermidis MRSE 35984 [2]: 9.38^a | MIC MRSE 35984 ([2]; Table 4): 9.38a micromolar | MIC PAO1 ([3]; Table 1A): > 100 µM | MIC PAO1 ([3]; Table 4): >100 µM | MIC A. baumannii 1794 [4]: >100 | MIC A. bau. 1794 ([4]; Table 4): >100 µM | MIC E. faecium VRE 700221 [5]: 3.13 µM | MIC VRE 700221 ([5]; Table 4): 3.13 µM
